Test results taken from ChEMBL document CHEMBL1275576, “In vitro activity of tomopenem (CS-023/RO4908463) against anaerobic bacteria” (Antimicrob Agents Chemother, 2009).

Key:
Type in all cases: functional
Anaerococcus prevotii = test: Antimicrobial activity against Anaerococcus prevotii ATCC 9321 by agar dilution method in presence of 5% laked sheep blood
[1] = tested on: Prevotella melaninogenica; test: Antimicrobial activity against Prevotella melaninogenica JCM 6325 by agar dilution method in presence of 5% laked sheep blood; conditions: ATCC 25845
[2] = tested on: Peptostreptococcus anaerobius; test: Antimicrobial activity against Peptostreptococcus anaerobius by agar dilution method in presence of 5% laked sheep blood
[3] = tested on: Peptostreptococcus anaerobius; test: Antimicrobial activity against Peptostreptococcus anaerobius ATCC 27337 by agar dilution method in presence of 5% laked sheep blood
Bacteroides fragilis [4] = test: Antimicrobial activity against Bacteroides fragilis GAI 5562 by agar dilution method in presence of 5% laked sheep blood
[5] = tested on: Porphyromonas asaccharolytica; test: Antimicrobial activity against Porphyromonas asaccharolyticus by agar dilution method in presence of 5% laked sheep blood
Prevotella intermedia = test: Antimicrobial activity against Prevotella intermedia by agar dilution method in presence of 5% laked sheep blood
Fusobacterium varium = test: Antimicrobial activity against Fusobacterium varium by agar dilution method in presence of 5% laked sheep blood
[6] = tested on: Limosilactobacillus fermentum; test: Antimicrobial activity against Lactobacillus fermentum JCM 1173 by agar dilution method in presence of 5% laked sheep blood
[7] = tested on: Bifidobacterium pseudolongum; test: Antimicrobial activity against Bifidobacterium pseudolongum ATCC 25526 by agar dilution method in presence of 5% laked sheep blood
Fusobacterium sp. = test: Antimicrobial activity against Fusobacterium sp. by agar dilution method in presence of 5% laked sheep blood
Bacteroides stercoris = test: Antimicrobial activity against Bacteroides stercoris by agar dilution method in presence of 5% laked sheep blood
Fusobacterium nucleatum [8] = test: Antimicrobial activity against Fusobacterium nucleatum ATCC 25586 by agar dilution method in presence of 5% laked sheep blood
Parvimonas micra = test: Antimicrobial activity against Parvimonas micra by agar dilution method in presence of 5% laked sheep blood
Atopobium parvulum = test: Antimicrobial activity against Atopobium parvulum VPI 0546 by agar dilution method in presence of 5% laked sheep blood; conditions: Lancefieldella parvula
Lactobacillus brevis = test: Antimicrobial activity against Lactobacillus brevis subsp. brevis JCM 1059 by agar dilution method in presence of 5% laked sheep blood; conditions: Levilactobacillus brevis
Bacteroides caccae = test: Antimicrobial activity against Bacteroides caccae by agar dilution method in presence of 5% laked sheep blood
Clostridioides difficile = test: Antimicrobial activity against Clostridium difficile by agar dilution method in presence of 5% laked sheep blood
Phocaeicola vulgatus = test: Antimicrobial activity against Bacteroides vulgatus GAI 0673 by agar dilution method in presence of 5% laked sheep blood
[9] = tested on: Peptoniphilus asaccharolyticus; test: Antimicrobial activity against Peptoniphilus asaccharolyticus WAL 3218 by agar dilution method in presence of 5% laked sheep blood
Bacteroides fragilis [10] = test: Antimicrobial activity against Bacteroides fragilis ATCC 25285 by agar dilution method in presence of 5% laked sheep blood; conditions: NCTC 9343
[11] = Antimicrobial activity against Bifidobacterium adolescentis ATCC 15703 by agar dilution method in presence of 5% laked sheep blood
[12] = tested on: Prevotella melaninogenica; test: Antimicrobial activity against Prevotella melaninogenica by agar dilution method in presence of 5% laked sheep blood
[13] = tested on: Fusobacterium necrophorum; test: Antimicrobial activity against Fusobacterium necrophorum by agar dilution method in presence of 5% laked sheep blood
Porphyromonas uenonis = test: Antimicrobial activity against Porphyromonas uenonis by agar dilution method in presence of 5% laked sheep blood
Fusobacterium nucleatum [14] = test: Antimicrobial activity against Fusobacterium nucleatum by agar dilution method in presence of 5% laked sheep blood
Bacteroides uniformis = test: Antimicrobial activity against Bacteroides uniformis by agar dilution method in presence of 5% laked sheep blood
Bacteroides fragilis [15] = test: Antimicrobial activity against carbapenemase-producing Bacteroides fragilis GAI 30079 by agar dilution method in presence of 5% laked sheep blood
Clostridium perfringens [16] = test: Antimicrobial activity against Clostridium perfringens by agar dilution method in presence of 5% laked sheep blood
Clostridium perfringens [17] = test: Antimicrobial activity against Clostridium perfringens ATCC 13124 by agar dilution method in presence of 5% laked sheep blood
[18] = tested on: Porphyromonas asaccharolytica; test: Antimicrobial activity against Porphyromonas asaccharolyticus ATCC 25260 by agar dilution method in presence of 5% laked sheep blood; conditions: DSM 20707
Porphyromonas gingivalis [19] = test: Antimicrobial activity against Porphyromonas gingivalis ATCC 33277 by agar dilution method in presence of 5% laked sheep blood
Eggerthella lenta = test: Antimicrobial activity against Eggerthella lenta by agar dilution method in presence of 5% laked sheep blood
[20] = tested on: Peptoniphilus asaccharolyticus; test: Antimicrobial activity against Peptoniphilus asaccharolyticus by agar dilution method in presence of 5% laked sheep blood
Odoribacter splanchnicus = test: Antimicrobial activity against Odoribacter splanchnicus by agar dilution method in presence of 5% laked sheep blood
Prevotella buccae = test: Antimicrobial activity against Prevotella buccae ATCC 33574 by agar dilution method in presence of 5% laked sheep blood; conditions: Segatella buccae
[21] = tested on: Paeniclostridium sordellii; test: Antimicrobial activity against Clostridium sordellii ATCC 9714 by agar dilution method in presence of 5% laked sheep blood; conditions: Paraclostridium sordellii
Peptoniphilus indolicus = test: Antimicrobial activity against Peptoniphilus indolicus GAI 0915 by agar dilution method in presence of 5% laked sheep blood
[22] = tested on: Bacteroides thetaiotaomicron; test: Antimicrobial activity against Bacteroides thetaiotaomicron by agar dilution method in presence of 5% laked sheep blood
Porphyromonas gingivalis [23] = test: Antimicrobial activity against Porphyromonas gingivalis by agar dilution method in presence of 5% laked sheep blood
Fusobacterium mortiferum = test: Antimicrobial activity against Fusobacterium mortiferum by agar dilution method in presence of 5% laked sheep blood
[24] = tested on: Sutterella wadsworthensis; test: Antimicrobial activity against Sutterella wadsworthensis ATCC 51579 by agar dilution method in presence of 5% laked sheep blood
[25] = Antimicrobial activity against Veillonella dispar ATCC 17748 by agar dilution method in presence of 5% laked sheep blood
[26] = Antimicrobial activity against Finegoldia magna ATCC 29328 by agar dilution method in presence of 5% laked sheep blood

## CC(=N)N1CC[C@H](SC2=C(C(=O)O)N3C(=O)[C@H]([C@@H](C)O)[C@H]3C2)C1
Anaerococcus prevotii
  MIC: 0.125 µg/mL
[1]
  MIC: 0.06 µg/mL
[2]
  MIC50: 0.125 µg/mL
  MIC90: 1 µg/mL
[3]
  MIC: 0.125 µg/mL
Bacteroides fragilis [4]
  MIC: 0.25 µg/mL
[5]
  MIC50: 0.06 µg/mL
  MIC90: 0.06 µg/mL
Prevotella intermedia
  MIC50: 0.06 µg/mL
  MIC90: 0.25 µg/mL
Fusobacterium varium
  MIC50: 0.125 µg/mL
  MIC90: 2 µg/mL
[6]
  MIC: 0.03 µg/mL
[7]
  MIC: 0.25 µg/mL
Fusobacterium sp.
  MIC50: 0.125 µg/mL
  MIC90: 2 µg/mL
Bacteroides stercoris
  MIC50: 1 µg/mL
  MIC90: 4 µg/mL
Fusobacterium nucleatum [8]
  MIC: 1 µg/mL
Parvimonas micra
  MIC50: 0.125 µg/mL
  MIC90: 0.125 µg/mL
Atopobium parvulum
  MIC: 0.25 µg/mL
Lactobacillus brevis
  MIC: 0.03 µg/mL
Bacteroides caccae
  MIC50: 1 µg/mL
  MIC90: 4 µg/mL
Clostridioides difficile
  MIC50: 4 µg/mL
  MIC90: 8 µg/mL
Phocaeicola vulgatus
  MIC: 0.125 µg/mL
[9]
  MIC: 0.25 µg/mL
Bacteroides fragilis [10]
  MIC: 0.25 µg/mL
[11]
  MIC: 0.125 µg/mL
[12]
  MIC50: 0.125 µg/mL
  MIC90: 0.25 µg/mL
[13]
  MIC50: 0.125 µg/mL
  MIC90: 2 µg/mL
Porphyromonas uenonis
  MIC50: 0.06 µg/mL
  MIC90: 0.06 µg/mL
Fusobacterium nucleatum [14]
  MIC50: 0.125 µg/mL
  MIC90: 2 µg/mL
Bacteroides uniformis
  MIC50: 1 µg/mL
  MIC90: 4 µg/mL
Bacteroides fragilis [15]
  MIC: > 128 µg/mL
Clostridium perfringens [16]
  MIC50: 0.03 µg/mL
  MIC90: 0.06 µg/mL
Clostridium perfringens [17]
  MIC: 0.03 µg/mL
[18]
  MIC: 0.03 µg/mL
Porphyromonas gingivalis [19]
  MIC: 0.03 µg/mL
Eggerthella lenta
  MIC50: 1 µg/mL
  MIC90: 2 µg/mL
[20]
  MIC50: 0.03 µg/mL
  MIC90: 0.06 µg/mL
Odoribacter splanchnicus
  MIC50: 1 µg/mL
  MIC90: 4 µg/mL
Prevotella buccae
  MIC: 0.25 µg/mL
[21]
  MIC: 0.03 µg/mL
Peptoniphilus indolicus
  MIC: 0.125 µg/mL
[22]
  MIC50: 0.5 µg/mL
  MIC90: 2 µg/mL
Porphyromonas gingivalis [23]
  MIC50: 0.06 µg/mL
  MIC90: 0.06 µg/mL
Fusobacterium mortiferum
  MIC50: 0.125 µg/mL
  MIC90: 2 µg/mL
[24]
  MIC: 0.5 µg/mL
[25]
  MIC: 0.06 µg/mL
[26]
  MIC: 0.25 µg/mL

## CCC[C@@H]1C[C@@H](C(=O)N[C@@H]([C@H]2O[C@H](SC)[C@H](O)[C@@H](O)[C@H]2O)[C@H](C)Cl)N(C)C1 [CLINDAMYCIN]
Anaerococcus prevotii
  MIC: 0.125 µg/mL
[3]
  MIC: 0.25 µg/mL
Bacteroides fragilis [4]
  MIC: 0.5 µg/mL
[6]
  MIC: ≤ 0.03 µg/mL
[7]
  MIC: ≤ 0.03 µg/mL
Atopobium parvulum
  MIC: 1 µg/mL
Lactobacillus brevis
  MIC: ≤ 0.03 µg/mL
Phocaeicola vulgatus
  MIC: 0.06 µg/mL
[9]
  MIC: > 128 µg/mL
Bacteroides fragilis [10]
  MIC: 1 µg/mL
[11]
  MIC: ≤ 0.03 µg/mL
Bacteroides fragilis [15]
  MIC: > 128 µg/mL
[18]
  MIC: ≤ 0.03 µg/mL
Porphyromonas gingivalis [19]
  MIC: ≤ 0.03 µg/mL
Prevotella buccae
  MIC: ≤ 0.03 µg/mL
[21]
  MIC: 1 µg/mL
Peptoniphilus indolicus
  MIC: 32 µg/mL
[24]
  MIC: 16 µg/mL
[25]
  MIC: ≤ 0.03 µg/mL
[26]
  MIC: 2 µg/mL
